The results in this text go back to ChEMBL document CHEMBL5500342, “Rational molecular design converting fascaplysin derivatives to potent broad-spectrum inhibitors against bacterial pathogens via targeting FtsZ” (Eur J Med Chem, 2024).

The structures appear in SMILES notation. Calls of active or inactive are those of the source.

In data set [1] the test system is Cell membrane. Put plainly: Disruption of cell membrane integrity in methicillin-resistant Staphylococcus aureus ATCC43300 assessed as morphological deformation at 4 times of MIC incubated for 2 hrs by transmission electron microscopic analysis. Format: cell membranes.
Data set [2] concerns Staphylococcus aureus. Kind of data set: Antibacterial activity against methicillin-resistant Staphylococcus aureus ATCC43300 at assessed as reduction in bacterial growth at 0.5 times of MIC incubated for 18 to 24 hrs and measured after 25 passages by drug resistance assay. It counts as functional, organism-based.
Data set [3] relates to Escherichia coli. Put plainly: Bactericidal activity against penicillin-susceptible Escherichia coli ATCC25922 incubated for 24 hrs by CLSI protocol based microbroth dilution method. Format: functional. On the technique in general: Broth dilution looks for growth in wells or tubes with falling amounts of substance.
Data set [4] deals with Cell membrane. Kind of data set: Disruption of cell membrane integrity in penicillin-susceptible Escherichia coli ATCC25922 assessed as cell deformation at 4 times of MIC incubated for 2 hrs by transmission electron microscopic analysis. Format: cell membranes.
Data set [5] relates to Cell membrane. Put plainly: Disruption of cell membrane integrity in methicillin-resistant Staphylococcus aureus ATCC43300 assessed as appearance of striated structures at 4 times of MIC incubated for 2 hrs by scanning electron microscopic analysis. Format: cell membranes.
For data set [6], the target named is T1, Cell division protein FtsZ (Escherichia coli K-12) (UniProt P0A9A6).
T1 sequence (whole entry): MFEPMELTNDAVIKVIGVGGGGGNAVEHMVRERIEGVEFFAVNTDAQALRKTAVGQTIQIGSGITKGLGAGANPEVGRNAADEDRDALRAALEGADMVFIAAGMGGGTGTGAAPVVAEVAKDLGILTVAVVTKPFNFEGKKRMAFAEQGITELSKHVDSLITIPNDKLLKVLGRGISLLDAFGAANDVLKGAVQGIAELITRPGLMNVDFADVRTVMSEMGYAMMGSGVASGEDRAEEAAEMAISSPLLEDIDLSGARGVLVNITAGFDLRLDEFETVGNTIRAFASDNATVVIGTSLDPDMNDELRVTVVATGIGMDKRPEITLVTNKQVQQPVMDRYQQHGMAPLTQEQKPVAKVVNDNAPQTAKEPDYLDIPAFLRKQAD
Put plainly: Induction of FtsZ polymerization in penicillin-susceptible Escherichia coli ATCC25922 assessed as bundling of FtsZ protofilaments at 4 microg/ml preincubated for 10 mins followed by GTP addition and measured after 15 mins by transmission electron microscopic analysis. The settings on record: filed as activator, dose 4.0 µg/ml, time 25.0 min.

Data set [7] deals with Escherichia coli. Kind of data set: Antibacterial activity against penicillin-susceptible Escherichia coli ATCC25922 assessed as inhibition of bacterial growth incubated for 18 hrs by CLSI protocol based microbroth dilution method. Format: functional.
The target in data set [8] is T2, Cell division protein FtsZ (Staphylococcus aureus) (UniProt P0A031).
T2 sequence (whole entry): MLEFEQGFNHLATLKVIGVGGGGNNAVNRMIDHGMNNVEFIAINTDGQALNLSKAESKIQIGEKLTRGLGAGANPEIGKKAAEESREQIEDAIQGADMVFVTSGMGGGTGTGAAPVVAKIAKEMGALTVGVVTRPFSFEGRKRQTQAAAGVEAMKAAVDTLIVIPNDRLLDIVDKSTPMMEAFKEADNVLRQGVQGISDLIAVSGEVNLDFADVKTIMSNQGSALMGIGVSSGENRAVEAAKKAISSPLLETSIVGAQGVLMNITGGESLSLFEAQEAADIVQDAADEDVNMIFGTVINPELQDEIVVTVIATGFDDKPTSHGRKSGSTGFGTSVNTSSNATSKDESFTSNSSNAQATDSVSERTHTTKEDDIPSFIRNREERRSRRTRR
Put plainly: Induction of recombinant FtsZ polymerization in methicillin-resistant Staphylococcus aureus ATCC43300 assessed as bundling of FtsZ protofilaments at 1 to 4 microg/ml measured within 5 mins by light scattering assay. The following applies: filed as activator, dose 1-4 µg/ml.

Data set [9] deals with Escherichia coli. Put plainly: Induction of morphological changes in penicillin-susceptible Escherichia coli ATCC25922 assessed as cell elongation at 0.5 times of MIC incubated for 4 hrs by optical microscopic analysis. Format: functional, organism-based.
Data set [10] relates to Staphylococcus aureus. Kind of data set: Antibacterial activity against methicillin-resistant Staphylococcus aureus ATCC43300 assessed as reduction in bacterial count at 2 times of MIC incubated for 24 hrs by time kill kinetics assay. It counts as functional, organism-based.
Data set [11] deals with T2, Cell division protein FtsZ (Staphylococcus aureus). Put plainly: Induction of recombinant FtsZ polymerization in methicillin-resistant Staphylococcus aureus ATCC43300 assessed as bundling of FtsZ protofilaments by measuring fold increase in maximal intensity at 4 microg/ml measured after 10 mins by light scattering assay. The settings on record: filed as activator, dose 4.0 µg/ml.

In data set [12] the test system is Staphylococcus aureus. Kind of data set: Antibacterial activity against methicillin-resistant Staphylococcus aureus ATCC43300 assessed as reduction in bacterial count at 1 times of MIC incubated for 24 hrs by time kill kinetics assay. It counts as functional, organism-based.
Data set [13] concerns Cell membrane. Put plainly: Disruption of cell membrane integrity in methicillin-resistant Staphylococcus aureus ATCC43300 assessed as ghost cell formation at 4 times of MIC incubated for 2 hrs by transmission electron microscopic analysis. Format: cell membranes.
A further data set deals with Salmonella enteritidis. Kind of data set: Antibacterial activity against Salmonella enteritidis BNCC281091 assessed as inhibition of bacterial growth incubated for 18 hrs by CLSI protocol based microbroth dilution method. The following applies: Salmonella enterica. It counts as functional, Salmonella enterica subsp. enterica serovar Enteritidis.
The subject of data set [14] is Cell membrane. Put plainly: Disruption of cell membrane integrity in methicillin-resistant Staphylococcus aureus ATCC43300 assessed as appearance of collapsed cells at 4 times of MIC incubated for 2 hrs by transmission electron microscopic analysis. It counts as cell membranes.
The test system of data set [15] is Cell membrane. Kind of data set: Disruption of cell membrane integrity in penicillin-susceptible Escherichia coli ATCC25922 assessed as scattered leakage of content at 4 times of MIC incubated for 2 hrs by transmission electron microscopic analysis. It counts as cell membranes.
For data set [16], the system named is Cell membrane. Put plainly: Disruption of cell membrane integrity in penicillin-susceptible Escherichia coli ATCC25922 assessed as appearance of wrecked cells at 4 times of MIC incubated for 2 hrs by transmission electron microscopic analysis. It counts as cell membranes.
A short description of data set [17]: Cytotoxicity against mouse RAW264.7 cells assessed as cell viability at 6.25 microg/ml incubated for 24 hrs by CCK8 assay relative to control. The following applies: at 6.25 µg/mL, read-out: Activity. It counts as toxicity, cell-based. (In general: Formazan colour is commonly taken as a measure of viable cells.)
Data set [18] deals with Escherichia coli. Kind of data set: Antibacterial activity against penicillin-susceptible Escherichia coli ATCC25922 assessed as log reduction in bacterial count at 2 times of MIC measured after 12 hrs by time kill kinetics assay. It counts as functional, organism-based.
Data set [19] concerns Escherichia coli. Kind of data set: Antibacterial activity against penicillin-susceptible Escherichia coli ATCC25922 assessed as log reduction in bacterial count at 1 times of MIC measured after 2 hrs by time kill kinetics assay. It counts as functional, organism-based.
Data set [20] is described as follows: Cytotoxicity against mouse RAW264.7 cells assessed as cell viability at 3.125 microg/ml incubated for 24 hrs by CCK8 assay relative to control. It counts as toxicity, cell-based. The settings on record: dose 3.125 µg/ml, read-out: Activity.
Data set [21] has as its system Escherichia coli. Put plainly: Antibacterial activity against penicillin-susceptible Escherichia coli ATCC25922 assessed as reduction in bacterial count incubated for 24 hrs by time kill kinetics assay. It counts as functional, organism-based.
Data set [22] has as its system Escherichia coli. Kind of data set: Antibacterial activity against penicillin-susceptible Escherichia coli ATCC25922 assessed as log reduction in bacterial count at 4 times of MIC measured after 24 hrs by time kill kinetics assay. It counts as functional, organism-based.
Data set [23] has as its system Cell membrane. Kind of data set: Disruption of cell membrane integrity in methicillin-resistant Staphylococcus aureus ATCC43300 assessed as increase in cellular debris at 4 times of MIC incubated for 2 hrs by transmission electron microscopic analysis. Format: cell membranes.

For `O=C1c2ccccc2-[n+]2ccc3c([nH]c4ccc(-c5ccccc5F)cc43)c21.[Cl-]`, the result (in the data set on Cell membrane [1]; with Staphylococcus aureus [2]; with Cell membrane [4]; in the data set with Cell membrane [5]; in [6]; in data set [8]) was Active. Besides, the outcome with Escherichia coli [9], in the data set with Staphylococcus aureus [10], with Staphylococcus aureus [12], in the data set on Cell membrane [13] and in the data set with Cell membrane [14] was Active. In addition, the minimal bactericidal concentration (MBC) in the data set with Escherichia coli [3] was 6.25 µg/mL. In addition, the MIC in the data set with Escherichia coli [7] was found to be 6.25 µg/mL; with Salmonella enteritidis it was 12.5 µg/mL. For the same compound, the fold change (FC) in data set [11] was determined as 2.
Turning to `O=C1c2ccccc2-[n+]2ccc3c([nH]c4ccc(-c5ccccc5Cl)cc43)c21.[Cl-]`, the result (with Cell membrane [1]; in the data set with Staphylococcus aureus [2]; with Cell membrane [4]; in the data set on Cell membrane [15]; with Cell membrane [5]; in data set [6]) was Active. Besides, the result (in the data set on Cell membrane [16]; in data set [8]; in the data set on Escherichia coli [9]; with Staphylococcus aureus [10]; in the data set on Staphylococcus aureus [12]; in the data set on Cell membrane [13]) was Active. Besides, the outcome with Cell membrane [14] was Active. Further, the minimum bactericidal concentration (MBC) in the data set with Escherichia coli [3] amounted to 50 µg/mL. Further, the minimum inhibitory concentration (MIC) amounted to 12.5 µg/mL in the data set with Escherichia coli [7] and 50 µg/mL with Salmonella enteritidis. Further, the fold change (FC) in [11] amounted to 2.
As for `O=C1c2ccccc2-[n+]2ccc3c([nH]c4ccc(-c5ccccc5C(F)(F)F)cc43)c21.[Cl-]`, the result (in the data set on Cell membrane [1]; in the data set with Staphylococcus aureus [2]; in the data set with Cell membrane [4]; with Cell membrane [5]; in data set [6]; in data set [8]) was Active. For the same compound, the outcome with Escherichia coli [9], with Staphylococcus aureus [10], with Staphylococcus aureus [12], in the data set on Cell membrane [13], with Escherichia coli [22] and in the data set on Cell membrane [23] was Active. In the data set on Escherichia coli [3], this compound yielded a minimum bactericidal concentration (MBC) of 50 µg/mL. The viability at 24 h, 6.25 microg/ml in data set [17] is 57%. In addition, the result with Escherichia coli [18] and in the data set on Escherichia coli [19] was inactive. Moreover, the minimal inhibitory concentration (MIC) in the data set with Escherichia coli [7] and with Salmonella enteritidis was 12.5 µg/mL each time. The viability at 24 h, 3.125 microg/ml in [20] is 81%. In addition, in the data set on Escherichia coli [21], the Activity result was “Dose-Dependent Effect”. Moreover, the fold change (FC) in data set [11] was found to be 2.

What is called MBC is the smallest concentration meeting the test's criterion for killing. A low value points to more potent killing. As usually defined, the MIC is the lowest concentration that inhibits growth of the organism.
